Values quoted from earlier work as cited in patent publication EP0433909A2, “Formulation” (CIBA-GEIGY AG, priority 1989, dated 1991).

Details: for solubilities: in water, K. Wellinga et al., J. Agr. Food Chem. Vol 21, No.3 (1973), p.350

Row | SMILES | solubility in water (The Merck Index, 9th Ed. (1976), p. 416) | solubilities
1 | O=C(NC(=O)c1c(F)cccc1F)Nc1ccc(Cl)cc1 [1-(4-chlorophenyl)-3-(2,6-difluorobenzoyl)urea] | about 0.3 ppm | –
2 | O=C(NC(=O)c1c(Cl)cccc1Cl)Nc1ccc(Cl)cc1 [1-(4-chlorophenyl)-3-(2,6-dichlorobenzoyl)-urea] | – | ≤ 1 ppm
3 | O=C(NC(=O)c1c(Cl)cccc1Cl)Nc1ccc(Cl)c(Cl)c1 [1-(2,6-dichlorobenzoyl)-3-(3,4-dichlorophenyl)-urea] | – | ≤ 1 ppm
